Data on 1 compound can be found in patent publication US4695589A, “Alpha-(aminoalkyl-4-hydroxy-3-(alkylthio)benzenemethanols” (Sterling Drug Inc., priority 1983, dated 1987).

Experiment [1] deals with unanesthetized spontaneous hypertensive rat. In words: Antihypertensive activity, single oral medication in the spontaneous hypertensive rat (SH Rat). Particulars: Rattus norvegicus; single oral dose required to induce a 40 mm average reduction in systolic blood pressure; read-out: Antihypertensive Activity SH Rat AHD40 mg./kg. P.O. Type of experiment: in vivo. The procedure:
Antihypertensive activity was determined on the basis of the observed reduction in systolic blood pressure measured according to the method of H. Kersten et al., J. Lab. and Clin. Med. 32, 1090 (1947) following a single oral medication in the unanesthetized spontaneous hypertensive rat described by Okamato et al., Japan Circulation J. 27, 282 (1963).
^a AHD40 = single oral dose required to induce a 40 mm average
reduction in systolic blood pressure in the unanesthetized spontaneous
^f Actual reduction in blood pressure (in mm Hg) observed at the […]

The subject of experiment [2] is hind limb vasculature of the anesthetized dog. In words: Vasodilator activity, dog-leg perfusion. It counts as in vivo. The following applies: Canis lupus familiaris; approximate intraarterial dose causing 50% reduction in perfusion pressure in hind limb; read-out: Vasodilator Activity Dog-Leg Perfusion AED50. An excerpt:
(§1) Vasodilator activity was judged on the basis of observed reduction in perfusion pressure in the hind limb vasculature of the anesthetized dog determined according to the procedure described by Jandhyala et al., European J. Pharm. 17, 357 (1972), and also on the basis of percent reduction in perfusion pressure as measured in the isolated rabbit ear artery according to the method described by De LaLande et al., Aust. J. Exp. Biol. Med. Sci. 43, 639 (1965).
^c AED50 =approximate intraarterial dose required to cause a 50%
reduction in perfusion pressure in the hind limb of the anesthetized dog.

The test system of experiment [3] is isolated rabbit ear artery. The experiment is described as follows: Vasodilator activity, isolated rabbit ear artery perfusion pressure. The following applies: Oryctolagus cuniculus; 1 × 10^-5 M; read-out: Rabbit Ear Artery vasodilation (percentage reduction in perfusion pressure).
Excerpt: as §1
^d Vasodilation is expressed as the percentage reduction in perfusion
pressure from the control level at the indicated molar dose.

For experiment [4], the system named is heart rate increase elicited by isoproterenol in the pentobarbitalized dog. In words: β-adrenergic blocking activity in the pentobarbitalized dog. Particulars: Canis lupus familiaris. Type of experiment: in vivo. As for the experimental part: The β-adrenergic blocking activity was determined in the pentobarbitalized dog as judged by the ability of the test compound to inhibit the elevation is heart rate elicited by a 0.5 mcg./kg. i.v. injection of isoproterenol.
^e AED50 = approximate intravenous dose required to cause 50%
inhibition of the heart rate increase elicited by isoproterenol in the
^h Actual percentage inhibition of heart rate increase above control
level observed at the indicated dose.

In experiment [5] the test system is histamine-induced bronchoconstriction in the dog. The experiment is described as follows: Block of histamine-induced bronchoconstriction in the dog (β-adrenergic stimulant activity). Type of experiment: in vivo.

Counter-ions that a name gives are not always drawn.

For the compound `COc1ccc(CC(C)NCC(O)c2ccc(OC(C)=O)c(SC)c2)cc1` (stereo not drawn) [Example 2, 4-hydroxy-α-<{[2-(4-methoxyphenyl-1-methylethyl]amino}methyl>-3-(methylthio)benzenemethanol 4-aceetate hydrochloride], the ED (40 mm Hg) in experiment [1] was determined as 10 mg/kg. Besides, the ED50 is 0.5 mg/kg in experiment [2] and less than 1 mg/kg in experiment [4] (approximate intravenous dose causing 50% inhibition of isoproterenol-elicited heart rate increase, read-out: Adrenergic Activity Dog β-blockade AED50). Further, the inhibition at 10 µM in experiment [3] turned out to be 50%. Also, in experiment [4] (1.0 mg./kg. intravenous, read-out: Actual percentage inhibition of heart rate increase above control level at the indicated dose), the inhibition at 1 mg/kg turned out to be 60%. In addition, the β-adrenergic stimulant activity entry in experiment [5] was “ability to block histamine-induced bronchoconstriction”.
